pIC50: −log10 of the molar value. Entries after “also recorded” stand apart in the source; their conditions may differ. Like-named read-outs stand apart in the source and are kept apart here.
Columns and labels:
[1] = test system: B cells (CD20+) in human whole blood; experiment: anti-CD79b-mediated B-cell activation in human whole blood (CD69 on CD20+ B cells, flow cytometry); type: cell-based; conditions: anti-CD79b stimulation
Procedure: Flow cytometric analyses were conducted using BD LSRFortessa™ Cell Analyzer (BD Biosciences) and the data analyzed by FlowJo (BD Biosciences). B-cell activation is determined by an increase in surface expression of activation marker CD69 on B cells (CD20+) following anti-CD79b stimulation. The experiment was conducted in duplicate.

[2] = test system: murine model of sclerodermatous chronic graft-versus-host disease (GVHD); conditions: for survival: PO Days 21-55: belumosudil 125 mg/kg Days 21-32 then 100 mg/kg, ibrutinib 20 mg/kg, rilzabrutinib 40 mg/kg BID, vehicle 91.7%
[3] = cited from earlier work
[4] = test system: sclerodermatous chronic GVHD model; experiment: Example 2: mouse model of sclerodermatous chronic GVHD, single agents; type: in vivo
Procedure: Animals were not replaced during the course of the study. Mice were handled in accordance with standard conventional procedures. Animals were acclimatized for a minimum of 3 days prior to study commencement. […] The study was performed in animal rooms provided with filtered air at a temperature of 70±5° F. and 50% 20% relative humidity and an automatic timer for a light/dark cycle of 12 hours on and 12 hours off with no twilight.
On Day 0, a combination of bone marrow cells and splenocytes were transferred from donor LP/J mice to the recipients, as indicated in Table 2. […] The BM cells were isolated using standard flushing practices. […] All animals were monitored daily, and weight, survival, and disease progression were recorded following the scoring system described in Table 4.
On Day 20, animals were redistributed into groups so that the average scGVHD score was similar across all groups. Treatment was initiated on Day 21 and continued until Day 55. All dosing was performed BID to control for stress associated with oral gavage. […] On Days 33, 36, 39, 42, and 45, all animals were photographed under isoflurane anesthesia to assess disease severity.

[5] = test system: murine model of sclerodermatous chronic graft-versus-host disease (GVHD); experiment: Example 4: murine model of sclerodermatous chronic GVHD, ibrutinib and rilzabrutinib; type: in vivo, mouse; conditions: for animals that did not display progressive disease by Day 56 (standard GVHD scale): vehicle 9%; for lung sum and individual component histopathology scores vs vehicle: ibrutinib 12.5 and 25 mg/kg (Groups 4, 5), rilzabrutinib 20 and 40 mg/kg (Groups 6, 7), not statistically significant
From the text: Animals were acclimatized for at least three days prior to study commencement.
Sclerodermatous chronic GVHD was induced in C57Bl/6 (CD45.1) mice using a single acute dose of 8.5 Gy of TBI on Day −1. […] The BM cells were isolated using standard flushing practices. […] Additionally, following TBI on Day −1 and up to Day 8, all animals were given supplemental high calorie highly palatable food in a dish on the bottom of the cage. Following transfer on Day 0, and then again as needed, all animals were given 1 mL/animal/day of supplemental fluids (warmed ringers solution) via subcutaneous injection. An additional 1 mL fluid may have been given in the pm on an as needed basis.
Ibrutinib. Ibrutinib was formulated with vehicle (0.5% MC).
Animals were treated twice daily on Days 21-55.
Animals in Groups 4 and 5 were administered ibrutinib for the first/AM dose and vehicle for the last/PM dose each day of dosing.
The modified GVHD score for scGVHD was based on 5 criteria: percentage of weight change (0-4), posture (hunching) (0-3), activity (0-3), fur texture (0-4), and skin integrity (0-4) (maximum index=18). […] Animals that appeared to be in pain were administered buprenorphine BID, as needed.
Progression-free survival was defined as an increase in GVHD Score of […] in comparison to Day 21 GVHD Score (standard or modified).
Fixed lung and skin samples were embedded in paraffin, sectioned at 5 microns, and slides stained with hematoxylin and eosin (H&E). One slide per block was sectioned and stained with hematoxylin and eosin (H&E). All slides were evaluated and scored with light microscopy by a board-certified veterinary pathologist.
Parametric data (weight change) were evaluated using one-way ANOVA with Dunnett's multiple comparisons test to compare all groups to the vehicle control group. Non-parametric data (GVHD scores) were analyzed with Kruskal-Wallis with Dunn's post-hoc test. All statistical analyses were performed using GraphPad Prism 8.4.3 Software (La Jolla, CA). Statistical significance was achieved when p<0.05.
Skin and Lung Histopathology. […] One slide per block was sectioned and stained with H&E. All slides were evaluated and scored with light microscopy by a board-certified veterinary pathologist. […] Lung range: 0-10; skin range: 0-30.
Dermal Thickness Measurements. Using H&E-stained slides, the dermis was measured (μm) in five areas across the tissue, with a mean calculated for each sample. Measurements were performed from epidermal basement membrane to the most superficial border of dermal collagen with subcuticular adipose. These measurements were only performed in areas of non-tangentially sectioned tissue, free of histologic artifacts, and with an intact epidermis.
Statistical Analysis. Data are presented as mean±standard error of the mean (SEM). Semi-quantitative sum and component histopathology scores were analyzed (GraphPad Prism) by non-parametric ANOVA (Kruskal-Wallis H test) with Dunn's multiple comparison post-hoc tests; dermal measurements were analyzed by one-way ANOVA with post-hoc Tukey tests as appropriate. Significance was set at p<0.05 for all tests.

[6] = dose groups not distinguished in the legend

## CC(C)NC(=O)COc1cccc(-c2nc(Nc3ccc4[nH]ncc4c3)c3ccccc3n2)c1 [belumosudil, 2-{3-[4-(1H-indazol-5-ylamino)-2-quinazolinyl]phenoxy}-N-(propan-2-yl) acetamide]
[1]; 10 μM compound, whole blood, anti-CD79b alone 73.4%
  activated B cells (CD69 positive): 82.4%
[1]; 10 μM to 0.00017 μM
  inhibition of B-cell activation in whole blood (dose-response graph): did not inhibit
[2]
  survival: 80%
[3]; coadministration with proton pump inhibitors
  belumosudil exposure: decreases belumosudil exposure
[3]; coadministration with strong CYP3A inducers
  belumosudil exposure: decreases belumosudil exposure

## CC(C)(C=C(C#N)C(=O)N1CCC[C@@H](n2nc(-c3ccc(Oc4ccccc4)cc3F)c3c(N)ncnc32)C1)N1CCN(C2COC2)CC1 [rilzabrutinib, (R)-2-[3-[4-amino-3-(2-fluoro-4-phenoxy-phenyl)pyrazolo[3,4-d]pyrimidin-1-yl]piperidine-1-carbonyl]-4-methyl-4-[4-(oxetan-3-yl)piperazin-1-yl]pent-2-enenitrile]
[1]; Homo sapiens, B-cell, dose-response 10 μM to 0.00017 μM, read-out: IC50 of inhibition of B-cell activation in whole blood
  pIC50: 8.02
[4]; rilzabrutinib 20 and 40 mg/kg BID PO, Days 21-55
  disease severity (GVHD scores, total GVHD burden AUC): dose-dependent, with a greater reduction in disease severity observed at the higher 40 mg/kg dose
[5]; 20 mg/kg BID (Group 6)
  body weight change (AUC Day 0-56) vs vehicle: notably more weight gain
  body weight change, death weight carried, vs vehicle: trend of increased weight gain
  modified GVHD score (AUC) vs vehicle: notably lower modified GVHD scores
  modified GVHD score, death score carried: trend of lowered scores vs vehicle: dampened after adjusting for survivor bias
  standard GVHD score (AUC) vs vehicle: notably lower standard GVHD scores
  standard GVHD score, death score carried: trend of lowered scores vs vehicle: dampened after adjusting for survivor bias
  animals that did not display progressive disease by Day 56 (standard GVHD scale): 30%
[5]; 20 mg/kg BID (Group 6), among-group p=0.3
  dermal thickness (H&E): small reduction in mean thickness
[5]; 20 mg/kg BID PO, Days 21-55 (Group 6), vehicle 82%
  survival: 80%
[5]; 40 mg/kg BID (Group 7)
  modified GVHD score (AUC) vs vehicle: notably lower modified GVHD scores
  modified GVHD score, death score carried: trend of lowered scores vs vehicle: dampened after adjusting for survivor bias
  standard GVHD score (AUC) vs vehicle: notably lower standard GVHD scores
  standard GVHD score, death score carried: trend of lowered scores vs vehicle: dampened after adjusting for survivor bias
  animals that did not display progressive disease by Day 56 (standard GVHD scale): 10%
[5]; 40 mg/kg BID (Group 7), p=0.09
  dermal fibrosis score vs vehicle: statistical trend toward lowered scores
[5]; 40 mg/kg BID PO, Days 21-55 (Group 7), vehicle 82%
  survival: 90%
[5]; [6]
  dermal thickness (FIG. 11 legend): slight reduction in dermal thickness
  skin sum histopathology score (FIG. 10A legend): Slightly lowered sum scores
[5]; either dose, 20 and 40 mg/kg BID (Groups 6 and 7)
  skin sum histopathology score vs vehicle: lowered sum scores
[5]
  lung sum and individual component histopathology scores vs vehicle: Small reductions
[5]; listed as rilzabrunitib
  lung sum and individual component histopathology scores vs vehicle: slight reductions in sum histopathology scores
[2]; Groups 4-8, rilzabrutinib 40 mg/kg BID (Group 6)
  standard GVHD score, death score carried, vs vehicle: trend of lower standard GVHD scores
[2]
  survival: survived to the conclusion of the study

## C=CC(=O)N1CCC[C@@H](n2nc(-c3ccc(Oc4ccccc4)cc3)c3c(N)ncnc32)C1 [ibrutinib, 1-[(3R)-3-[4-amino-3-(4-phenoxyphenyl)-1H-pyrazolo[3,4-d]pyrimidin-1-yl]-1-piperidinyl]-2-propen-1-one, reference compound]
[4]; ibrutinib 25 mg/kg PO AM dose, Days 21-55, vs vehicle
  GVHD scores: numerical reduction in GVHD scores
[5]; 12.5 mg/kg (Group 4)
  body weight change (AUC Day 0-56) vs vehicle: notably more weight gain
  body weight change, death weight carried, vs vehicle: trend of increased weight gain
  animals that did not display progressive disease by Day 56 (standard GVHD scale): 10%
[5]; 12.5 mg/kg PO AM dose, Days 21-55 (Group 4), to Day 56
  survival: survived until the end of the study
[5]; 25 mg/kg (Group 5)
  modified GVHD score (AUC) vs vehicle: notably lower modified GVHD scores
  modified GVHD score, death score carried: trend of lowered scores vs vehicle: dampened after adjusting for survivor bias
  skin sum histopathology score vs vehicle: lowered sum scores
  standard GVHD score (AUC) vs vehicle: notably lower standard GVHD scores
  standard GVHD score, death score carried: trend of lowered scores vs vehicle: dampened after adjusting for survivor bias
  animals that did not display progressive disease by Day 56 (standard GVHD scale): 40%
[5]; 25 mg/kg (Group 5), p=0.02
  dermal fibrosis score vs vehicle: statistically lowered dermal fibrosis scores
[5]; 25 mg/kg PO AM dose, Days 21-55 (Group 5), vehicle 82%
  survival: 90%
[5]; [6]
  skin sum histopathology score (FIG. 10A legend): Slightly lowered sum scores
[5]; listed as ibrunitib
  lung sum and individual component histopathology scores vs vehicle: Small reductions; also recorded: slight reductions in sum histopathology scores
[2]
  survival: 90%

— US20260232668A1 (Kadmon Corporation, LLC, priority 2023, published 2026)
